Data as given in patent EP3046573B1, “AMYLIN ANALOGUES” (Zealand Pharma A/S, priority 2013, dated 2015).
Like-named read-outs stand apart in the source and are kept apart here. Numbered stars: 1 amine (or outer) side, 2 acyl side, 3 side chain; on linkers, the order of the positions; unused ones are H or OH. Bridge positions count the residues as written; N and C are the ends. Square brackets hold non-standard residues; d marks the D form. Peptide text beside a SMILES is read from it. * marks the point of attachment. C20 diacid = O=C(O)CCCCCCCCCCCCCCCCCCC(=O)*; γGlu = O=C(O)[C@H](CCC(=O)[*:2])N[*:1]; Stearoyl = CCCCCCCCCCCCCCCCCC(=O)*; NMeI = CC[C@H](C)[C@H](NC)C(=O)O; Sar = CNCC(=O)O

Columns and labels:
[1] = Solubility assessment (turbidity absorbance at 325 nm); assay type: physicochemical; conditions: stock 2 mg/ml diluted 1:1, ambient temperature (typically 25°C), n=1; for Solubility, Acetate buffer pH 4: 100 mM acetate buffer pH 4.0; for Solubility, Acetate buffer pH 5: 100 mM acetate buffer pH 5.0; for Solubility, Histidine buffer pH 6: 100 mM histidine buffer pH 6.0; for Solubility, Histidine buffer pH 7: 100 mM histidine buffer pH 7.0; for Solubility, Phosphate buffer pH 6: 100 mM phosphate buffer pH 6.0; for Solubility, Phosphate buffer pH 7: 100 mM phosphate buffer pH 7.0; for Solubility, Phosphate buffer pH 7.5: 100 mM phosphate buffer pH7.5
Method in brief: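 Stock 2 mg/ml peptide, H2O/HCl pH 2.5; 1:1 into 100 mM buffers: acetate pH 4.0/5.0, His pH 6.0/7.0, phosphate pH 6.0/7.0/7.5. A280 + A325, ~25°C, n=1. Soluble ≥ 1 mg/ml if A325 ≤ 0.02.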

[2] = biological target: T1, human calcitonin receptor (hCTR2) (Homo sapiens, UniProt P30988); experiment: hCTR2 assay: induction of cAMP (AlphaScreen cAMP Assay kit) in COS7 cells expressing hCTR2; assay type: cell-based
T1 construct: expressed in transfected cells
T1 sequence (P30988 25-474): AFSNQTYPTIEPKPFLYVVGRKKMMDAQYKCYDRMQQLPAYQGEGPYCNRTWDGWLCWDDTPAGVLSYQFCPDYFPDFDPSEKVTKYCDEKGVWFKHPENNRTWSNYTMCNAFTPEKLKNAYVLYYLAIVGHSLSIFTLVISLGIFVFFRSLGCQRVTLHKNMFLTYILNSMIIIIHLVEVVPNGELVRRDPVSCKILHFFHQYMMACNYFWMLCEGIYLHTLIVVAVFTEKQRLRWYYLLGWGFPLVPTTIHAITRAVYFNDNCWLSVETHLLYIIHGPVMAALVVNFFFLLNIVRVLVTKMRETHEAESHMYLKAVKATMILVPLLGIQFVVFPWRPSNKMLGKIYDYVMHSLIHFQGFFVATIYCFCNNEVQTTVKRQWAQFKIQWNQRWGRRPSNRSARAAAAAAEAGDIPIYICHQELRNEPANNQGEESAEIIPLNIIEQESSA
Method in brief: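 COS7 stable hCTR2 clone (RAMP-free); peptide dose-response 15 min 37° C in Tyrode pH 7.4 + 100 µM IBMX + 0.1% casein; lysis 10 min RT; AlphaScreen cAMP; 4PL fit.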

Structure (SMILES) | Solubility, Acetate buffer pH 4 [1] | Solubility, Acetate buffer pH 5 [1] | Solubility, Histidine buffer pH 6 [1] | Solubility, Histidine buffer pH 7 [1] | Solubility, Phosphate buffer pH 6 [1] | Solubility, Phosphate buffer pH 7 [1] | Solubility, Phosphate buffer pH 7.5 [1] | EC50 [2] | EC50 ([2]; cAMP induction in COS7 cells expressing hCTR2, average of a minimum of 3 determinations, read-out: hCTR2 EC50)
CCCCCCCCCCCCCCCCCC(=O)N[C@@H](CCC(=O)N[C@@H](CCCNC(=N)N)C(=O)N[C@H]1CSSC[C@@H](C(=O)N[C@@H](C)C(=O)N[C@H](C(=O)N[C@@H](CCC(N)=O)C(=O)N[C@@H](CCCNC(=N)N)C(=O)N[C@@H](CC(C)C)C(=O)N[C@@H](C)C(=O)N[C@@H](CCC(=O)O)C(=O)N[C@@H](Cc2ccccc2)C(=O)N[C@@H](CC(C)C)C(=O)N[C@@H](Cc2c[nH]cn2)C(=O)N[C@@H](CCCNC(=N)N)C(=O)N[C@@H](CO)C(=O)N[C@@H](CO)C(=O)N[C@@H](CC(N)=O)C(=O)N[C@@H](CC(N)=O)C(=O)N[C@@H](Cc2ccccc2)C(=O)N(C)CC(=O)N[C@@H](C)C(=O)N(C)[C@H](C(=O)N[C@@H](CC(C)C)C(=O)N[C@@H](CO)C(=O)N[C@@H](CO)C(=O)N[C@H](C(=O)N[C@@H](CC(N)=O)C(=O)N[C@H](C(=O)NCC(=O)N[C@@H](CO)C(=O)N[C@@H](CC(N)=O)C(=O)N[C@H](C(=O)N2CCC[C@H]2C(N)=O)[C@@H](C)O)C(C)C)[C@@H](C)O)[C@@H](C)CC)[C@@H](C)O)NC(=O)[C@H]([C@@H](C)O)NC(=O)[C@H](C)NC(=O)[C@H]([C@@H](C)O)NC(=O)[C@H](CC(N)=O)NC1=O)C(=O)O [Compound 93, [Octadecanoyl]-isoGlu-RC()NTATC()ATQRLAEFLHRSSNNF-Gly(Me)-A-Ile(Me)-LSSTNVGSNTP-NH2] ({Stearoyl-γGlu}-RCNTATCATQRLAEFLHRSSNNF[Sar]A[NMeI]LSSTNVGSNTP-NH2; disulfide 2-7) | SS (SS indicates solubility ≥ 1mg/ml) | SS (SS indicates solubility ≥ 1mg/ml) | SS (SS indicates solubility ≥ 1mg/ml) | SS (SS indicates solubility ≥ 1mg/ml) | SS (SS indicates solubility ≥ 1mg/ml) | SS (SS indicates solubility ≥ 1mg/ml) | SS (SS indicates solubility ≥ 1mg/ml) | 0.064 nM | –
CC[C@H](C)[C@@H](C(=O)N[C@@H](CC(C)C)C(=O)N[C@@H](CO)C(=O)N[C@@H](CO)C(=O)N[C@H](C(=O)N[C@@H](CCC(=O)O)C(=O)N[C@H](C(=O)NCC(=O)N[C@@H](CO)C(=O)N[C@@H](CCC(=O)O)C(=O)N[C@H](C(=O)N1CCC[C@H]1C(N)=O)[C@@H](C)O)C(C)C)[C@@H](C)O)N(C)C(=O)CN(C)C(=O)[C@H](Cc1ccccc1)NC(=O)[C@H](CO)NC(=O)[C@H](CO)NC(=O)[C@H](CCCNC(=N)N)NC(=O)[C@H](Cc1c[nH]cn1)NC(=O)[C@H](CC(C)C)NC(=O)[C@H](Cc1ccccc1)NC(=O)[C@H](CCC(=O)O)NC(=O)[C@H](C)NC(=O)[C@H](CC(C)C)NC(=O)[C@H](CCCNC(=N)N)NC(=O)[C@H](CCC(N)=O)NC(=O)[C@@H](NC(=O)[C@H](C)NC(=O)[C@@H]1CSSC[C@H](NC(=O)[C@H](CCCNC(=N)N)NC(=O)CC[C@H](NC(=O)CCCCCCCCCCCCCCCCCCC(=O)O)C(=O)O)C(=O)N[C@@H](CC(N)=O)C(=O)N[C@@H]([C@@H](C)O)C(=O)N[C@@H](C)C(=O)N[C@@H]([C@@H](C)O)C(=O)N1)[C@@H](C)O [Compound 95, [19CD]-isoGlu-RC()NTATC()ATQRLAEFLHRSSF-Gly(Me)-Ile(Me)-LSSTEVGSETP-NH2] ({C20 diacid-γGlu}-RCNTATCATQRLAEFLHRSSF[Sar][NMeI]LSSTEVGSETP-NH2; disulfide 2-7) | SS (SS indicates solubility ≥ 1mg/ml) | SS (SS indicates solubility ≥ 1mg/ml) | SS (SS indicates solubility ≥ 1mg/ml) | SS (SS indicates solubility ≥ 1mg/ml) | SS (SS indicates solubility ≥ 1mg/ml) | SS (SS indicates solubility ≥ 1mg/ml) | SS (SS indicates solubility ≥ 1mg/ml) | – | 0.082 nM
CC[C@H](C)[C@@H](C(=O)N[C@@H](CC(C)C)C(=O)N[C@@H](CO)C(=O)N[C@@H](CO)C(=O)N[C@H](C(=O)N[C@@H](CC(N)=O)C(=O)N[C@H](C(=O)NCC(=O)N[C@@H](CO)C(=O)N[C@@H](CC(N)=O)C(=O)N[C@H](C(=O)N[C@@H](Cc1ccc(O)cc1)C(N)=O)[C@@H](C)O)C(C)C)[C@@H](C)O)N(C)C(=O)[C@H](C)NC(=O)CN(C)C(=O)[C@H](Cc1ccccc1)NC(=O)[C@H](CC(N)=O)NC(=O)[C@H](CC(N)=O)NC(=O)[C@H](CO)NC(=O)[C@H](CO)NC(=O)[C@H](CCCNC(=N)N)NC(=O)[C@H](Cc1c[nH]cn1)NC(=O)[C@H](CC(C)C)NC(=O)[C@H](Cc1ccccc1)NC(=O)[C@H](CCC(=O)O)NC(=O)[C@H](C)NC(=O)[C@H](CC(C)C)NC(=O)[C@H](CCCNC(=N)N)NC(=O)[C@H](CCC(N)=O)NC(=O)[C@@H](NC(=O)[C@H](C)NC(=O)[C@@H]1CSSC[C@H](NC(=O)[C@H](CCCNC(=N)N)NC(=O)CC[C@H](NC(=O)CCCCCCCCCCCCCCCCCCC(=O)O)C(=O)O)C(=O)N[C@@H](CC(N)=O)C(=O)N[C@@H]([C@@H](C)O)C(=O)N[C@@H](C)C(=O)N[C@@H]([C@@H](C)O)C(=O)N1)[C@@H](C)O [Compound 156, [19CD]-isoGlu-RC()NTATC()ATQRLAEFLHRSSNNF-Gly(Me)-A-Ile(Me)-LSSTNVGSNTY-NH2] ({C20 diacid-γGlu}-RCNTATCATQRLAEFLHRSSNNF[Sar]A[NMeI]LSSTNVGSNTY-NH2; disulfide 2-7) | SS (SS indicates solubility ≥ 1mg/ml) | SS (SS indicates solubility ≥ 1mg/ml) | SS (SS indicates solubility ≥ 1mg/ml) | II (II indicates solubility ≤ 1 mg/ml) | SS (SS indicates solubility ≥ 1mg/ml) | II (II indicates solubility ≤ 1 mg/ml) | II (II indicates solubility ≤ 1 mg/ml) | 0.54 nM | –
